The values that follow are results of earlier work, collected in patent US20070166816A1, “Assay device that analyzes the absorption, metabolism, permeability and/or toxicity of a candidate compound” (Surface Logix, Inc., priority 2002, published 2007).

One series concerns Caco-2 cells. To be noted: previously characterized in Caco-2 assays; qualitative grade.
The conditions of series [1]: previously characterized in humans; qualitative grade.

As to `O=c1[nH]cc(F)c(=O)[nH]1` [5-Fluorouracil], in the series with Caco-2 cells, the Absorbance in vitro result is reported as “Very High”. For the same molecule, the Absorbance in vivo result in series [1] is “Low”. `NS(=O)(=O)c1cc2c(cc1Cl)N=CNS2(=O)=O` [Chlorothiazide]: the Absorbance in vitro result with Caco-2 cells is “Low”.

Turning to `NS(=O)(=O)c1cc(C(=O)O)c(NCc2ccco2)cc1Cl` [Furosemide], the Absorbance in vivo result in series [1] is reported as “Moderate”. On to `OC[C@@H](O)[C@@H](O)[C@H](O)[C@H](O)CO` [Mannitol-reference, Mannitol], for which the Absorbance in vitro entry in the series with Caco-2 cells is “Low”. Further, the Absorbance in vivo result in series [1] is given as “Very low”. `COc1ccc2cc([C@H](C)C(=O)O)ccc2c1` [Naproxein]: the Absorbance in vitro entry in the series with Caco-2 cells is “High”. In addition, in series [1], the Absorbance in vivo entry was “High”. For `CC(C)NCC(O)COc1cccc2ccccc12` (stereo not drawn) [Propranolol--reference, Propranolol], the Absorbance in vitro result in the series with Caco-2 cells was “Moderate”.
